# Measurements from PubChem BioAssay (NCI).
# Values joined by “and” are separate entries in the source; they are usually repeats but may differ in a detail not shown here. Equal values may be shown once.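 These data come from cells grown in 96-well plates and exposed to compound for 48 hours at five concentrations. GI50 = concentration required for 50% inhibition of growth. TGI marks complete inhibition of growth.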
# Assays:
# Assay in all cases: inhibition of tumour cell growth, NCI panel, 48 h
# ACHN renal = test system: ACHN renal
# HCT-15 colon = test system: HCT-15 colon
# NCI-H460 lung = test system: NCI-H460 lung
# NCI-H522 lung = test system: NCI-H522 lung
# OVCAR-3 ovarian = test system: OVCAR-3 ovarian
# SF-295 CNS = test system: SF-295 CNS
# SK-MEL-5 melanoma = test system: SK-MEL-5 melanoma
# SN12C renal = test system: SN12C renal
# SR leukemia = test system: SR leukemia
# TK-10 renal = test system: TK-10 renal
Compound,GI50 (ACHN renal),TGI (ACHN renal),GI50 (HCT-15 colon),TGI (HCT-15 colon),GI50 (NCI-H460 lung),TGI (NCI-H460 lung),GI50 (NCI-H522 lung),TGI (NCI-H522 lung),GI50 (OVCAR-3 ovarian),TGI (OVCAR-3 ovarian),GI50 (SF-295 CNS),TGI (SF-295 CNS),GI50 (SK-MEL-5 melanoma),TGI (SK-MEL-5 melanoma),GI50 (SN12C renal),TGI (SN12C renal),GI50 (SR leukemia),TGI (SR leukemia),GI50 (TK-10 renal),TGI (TK-10 renal)
CC1=C2C[C@H]3[C@@H](CC=C4C[C@@H](O)CC[C@@]43C)[C@@H]2CC[C@]12O[C@@H]1C[C@H](C)CN[C@H]1[C@H]2C,10.4 µM and 18.7 µM,22.3 µM and 41.4 µM,12.6 µM and 22.3 µM,49.4 µM and > 100 µM,21.8 µM and 19.9 µM,50 µM and 44.4 µM,13.6 µM and 21.2 µM,44.7 µM and 39.7 µM,12.2 µM and 21 µM,42.8 µM and 43.2 µM,40.8 µM and 19 µM,50 µM and 40.2 µM,> 50 µM and 21.7 µM,> 50 µM and 53.5 µM,25.6 µM and 18.3 µM,50 µM and 47.4 µM,3.42 µM,21.9 µM,7.17 µM and 14.2 µM,25.9 µM and 34.1 µM
CCCCCCCCCCC(O)C1CCC(C(O)CCC(O)C2CCC(CCCCCCC[C@H](O)CC3=C[C@@H](C)OC3=O)O2)O1 (stereo not given in full),> 100 µM,> 100 µM,–,> 100 µM,–,> 100 µM,–,> 100 µM,–,45 µM,–,> 100 µM,5.97 µM,> 64.3 µM,–,> 100 µM,–,> 100 µM,–,> 100 µM
NC(=O)c1ccc2c(-c3ccnc(NCCCO)n3)c(-c3ccc(F)cc3)nn2c1,> 17.1 µM,> 25 µM,> 25 µM,> 25 µM,> 25 µM,> 25 µM,> 25 µM,> 25 µM,18.6 µM,> 25 µM,> 25 µM,> 25 µM,> 25 µM,> 25 µM,> 25 µM,> 25 µM,> 25 µM,> 25 µM,> 18.6 µM,> 25 µM
c1cc(OCCN2CCCCC2)ccc1CNc1ccc2nc(CCC3CCCCC3)[nH]c2c1,2.2 µM,5.4 µM,1.58 µM,3.89 µM,1.94 µM,3.97 µM,1.98 µM,3.94 µM,1.73 µM,3.5 µM,1.98 µM,3.88 µM,1.63 µM,3.01 µM,1.52 µM,3.33 µM,0.617 µM,3.01 µM,2.9 µM,8.26 µM
COC(=O)c1c2c(c(C)[n+]([O-])c1C)C(=O)C=C(NCc1ccc(OC)cc1)C2=O,1.98 µM,5.23 µM,0.962 µM,4.19 µM,1.29 µM,4.69 µM,1.82 µM,5.16 µM,0.795 µM,2.29 µM,1.36 µM,3.83 µM,0.607 µM,1.21 µM,1.69 µM,4.3 µM,3.5 µM,> 100 µM,8.3 µM,25.8 µM
COc1c(Cl)c2c(c(OC)c1OC)-c1ccc(SC)c(=O)cc1[C@@H](NC(=O)OCC(F)(F)F)CC2,< 0.01 µM,> 100 µM,< 0.01 µM,> 61.3 µM,< 0.01 µM,10.2 µM,< 0.01 µM,3.46 µM,< 0.01 µM,< 0.01 µM,< 0.01 µM,2.98 µM,< 0.01 µM,0.0184 µM,< 0.01 µM,> 100 µM,< 0.01 µM,17.9 µM,6.11 µM,> 100 µM
CCCn1c(SCC)c2cc3cc4ccccc4cc3cc2c1-c1nc(F)nc(F)n1,–,> 100 µM,–,> 100 µM,–,> 100 µM,–,> 100 µM,–,> 100 µM,–,> 100 µM,–,> 100 µM,–,> 100 µM,–,> 100 µM,–,> 100 µM
Cn1nc(-c2ccccc2)nc1[N+](=O)[O-],–,> 10 µM,–,> 10 µM,–,> 10 µM,–,> 10 µM,–,> 10 µM,–,> 10 µM,–,> 10 µM,–,> 10 µM,–,> 10 µM,–,> 10 µM
CN(C)C1CCN(C(=O)c2ccc(NC(=O)Nc3ccc(-c4nc(N5CCOCC5)nc(N5CCOCC5)n4)cc3)cc2)CC1,1.42 µM and 1.06 µM,> 100 µM,3.08 µM and 2.19 µM,> 100 µM,0.029 µM and 0.0334 µM and 0.0608 µM,–,0.0102 µM and 0.0103 µM and 0.0246 µM,0.0758 µM and 0.207 µM and 0.371 µM,0.0148 µM and 0.0139 µM and 0.0282 µM,0.603 µM and 0.366 µM and 0.935 µM,0.0732 µM and 0.0711 µM and 0.639 µM,0.577 µM and 0.502 µM and 3.52 µM,0.0613 µM and 0.548 µM,0.323 µM and 2.18 µM,< 0.0129 µM and 0.0133 µM and 0.0208 µM,13.1 µM and 2.5 µM and > 10 µM,0.0666 µM and 0.0123 µM,–,0.363 µM and 0.389 µM and 0.122 µM,1.84 µM and 1.56 µM and 2.5 µM
COc1cc(C=Nc2ccc(C(C)C)cc2)cc(OC)c1OC,–,> 100 µM,–,> 100 µM,–,> 100 µM,–,> 100 µM,–,> 100 µM,–,> 100 µM,–,> 100 µM,–,> 100 µM,–,> 100 µM,–,> 100 µM
CC(=O)/C(=C\C1=CCCO1)C(=O)Nc1ccccc1C,–,> 100 µM,–,> 100 µM,–,> 100 µM,–,> 100 µM,–,> 100 µM,–,> 100 µM,–,> 100 µM,–,> 100 µM,–,> 100 µM,–,> 100 µM
COc1ccc2c(CN3CCC[C@H]3C(=O)O)cc3cc4c(cc3c2c1)OCO4,5.97 µM,> 100 µM,19.1 µM,> 100 µM,14.6 µM,88.2 µM,11.1 µM,95.2 µM,12 µM,63 µM,8.88 µM,39.4 µM,12.2 µM,34.2 µM,6.04 µM,73.2 µM,6.23 µM,> 100 µM,14.7 µM,67.4 µM
CCOc1ccc(Nc2nc(-c3ccc4c(c3)NC(=O)CO4)cs2)cc1,6.96 µM,> 100 µM,4.74 µM,> 100 µM,4.37 µM,> 100 µM,4.27 µM,37.1 µM,20.2 µM,> 100 µM,4.92 µM,> 100 µM,1.65 µM,3.5 µM,49.4 µM,> 100 µM,4.68 µM,> 100 µM,9.98 µM,> 100 µM
CCOC(=O)C1=C(Nc2ccc(Cl)cc2Cl)OC/C1=N\NS(=O)(=O)c1ccc(C)cc1,–,> 100 µM,–,> 100 µM,–,> 100 µM,–,> 100 µM,–,> 100 µM,–,> 100 µM,–,> 100 µM,–,> 100 µM,–,> 100 µM,–,> 100 µM
O=C1c2cc([N+](=O)[O-])ccc2-c2cccc(F)c21,–,> 100 µM,–,> 100 µM,–,> 100 µM,–,> 100 µM,–,> 100 µM,–,> 100 µM,–,> 100 µM,–,> 100 µM,–,> 100 µM,–,> 100 µM
